Source: US20230041738A1, “1H-PYRAZOLO[4,3-d]PYRIMIDINE COMPOUNDS AS TOLL-LIKE RECEPTOR 7 (TLR7) AGONISTS” (BRISTOL-MYERS SQUIBB COMPANY, priority 2020, published 2023)

What was measured:
human TLR7 = target: T1, human TLR7 (Homo sapiens, UniProt Q9NYK1); assay: Human TLR7 agonist activity assay (hTLR7 reporter, HEK-Blue TLR7 cells, SEAP); format: cell-based; details: HEK-Blue TLR7 cells with SEAP reporter, 18 h treatment; average where assay performed multiple times
T1 construct: host or cells: HEK-Blue TLR7 cells (engineered human embryonic kidney cells)
T1 sequence (Q9NYK1 27-1049): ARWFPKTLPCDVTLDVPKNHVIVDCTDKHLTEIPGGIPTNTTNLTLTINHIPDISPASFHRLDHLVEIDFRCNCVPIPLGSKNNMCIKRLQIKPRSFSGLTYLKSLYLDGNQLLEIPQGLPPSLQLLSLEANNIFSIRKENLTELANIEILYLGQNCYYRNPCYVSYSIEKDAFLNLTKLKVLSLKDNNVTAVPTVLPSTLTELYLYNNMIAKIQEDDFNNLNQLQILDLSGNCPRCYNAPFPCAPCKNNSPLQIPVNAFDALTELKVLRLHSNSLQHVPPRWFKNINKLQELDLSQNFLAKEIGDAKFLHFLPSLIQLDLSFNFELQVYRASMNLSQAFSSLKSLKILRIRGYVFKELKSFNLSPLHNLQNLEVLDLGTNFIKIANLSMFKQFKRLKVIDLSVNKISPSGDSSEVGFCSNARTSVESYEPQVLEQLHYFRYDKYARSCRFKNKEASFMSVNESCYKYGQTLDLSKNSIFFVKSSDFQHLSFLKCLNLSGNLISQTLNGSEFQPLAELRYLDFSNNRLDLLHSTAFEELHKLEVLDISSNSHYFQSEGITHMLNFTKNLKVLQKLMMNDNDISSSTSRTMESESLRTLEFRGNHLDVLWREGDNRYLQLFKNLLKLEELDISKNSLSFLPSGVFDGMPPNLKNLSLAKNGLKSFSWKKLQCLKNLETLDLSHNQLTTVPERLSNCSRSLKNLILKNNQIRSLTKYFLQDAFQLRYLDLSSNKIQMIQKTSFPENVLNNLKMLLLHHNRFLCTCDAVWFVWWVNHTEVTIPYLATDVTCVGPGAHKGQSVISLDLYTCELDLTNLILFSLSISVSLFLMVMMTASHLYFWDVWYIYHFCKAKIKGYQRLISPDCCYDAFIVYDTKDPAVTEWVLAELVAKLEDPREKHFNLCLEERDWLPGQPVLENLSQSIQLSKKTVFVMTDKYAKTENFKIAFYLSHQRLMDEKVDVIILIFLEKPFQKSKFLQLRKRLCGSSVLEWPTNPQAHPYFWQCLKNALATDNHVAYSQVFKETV
Experimental: This procedure describes a method for assaying human TLR7 (hTLR7) agonist activity of the compounds disclosed in this specification.
HEK-Blue™ TLR7 cells were added to each well of a 384-well tissue-culture plate (15,000 cells per well) and incubated 16-18 h at 37° C., 5% CO2. Compounds (100 nl) were dispensed into wells containing the HEK-Blue™ TLR cells and the treated cells were incubated at 37° C., 5% CO2. After 18 h treatment ten microliters of freshly-prepared Quanti-Blue™ reagent (Invivogen) was added to each well, incubated for 30 min (37° C., 5% CO2) and SEAP levels measured using an Envision plate reader (OD=620 nm). The half maximal effective concentration values (EC50; compound concentration which induced a response halfway between the assay baseline and maximum) were calculated.

CD69 = assay: Induction of CD69 in human whole blood (hWB); format: cell-based; details: 17 hrs at 37 C, CD69 surface staining, 100% set to 1 uM resiquimod, average where performed multiple times
Experimental: The induction of Type I interferon (IFN) MX-1 genes and the B-cell activation marker CD69 are downstream events that occur upon activation of the TLR7 pathway. The following is a human whole blood assay that measures their induction in response to a TLR7 agonist.
Heparinized human whole blood was harvested from human subjects and treated with test TLR7 agonist compounds at 1 mM. The blood was diluted with RPMI 1640 media and Echo was used to predot 10 nL per well giving a final concentration of 1 uM (10 nL in 10 uL of blood). After mixing on a shaker for 30 sec, the plates were covered and placed in a 37° C. chamber for o/n=17 hrs. Fixing/lysis buffer was prepared (5×→1× in H2O, warm at 37° C.; Cat #BD 558049) and kept the perm buffer (on ice) for later use.
For surface markers staining (CD69): prepared surface Abs: 0.045 ul hCD14-FITC (ThermoFisher Cat #MHCD1401)+0.6 ul hCD19-ef450 (ThermoFisher Cat #48-0198-42)+1.5 ul hCD69-PE (cat #BD555531)+0.855 ul FACS buffer. Added 3 ul/well, spin1000 rpm for 1 min and mixed on shaker for 30 sec, put on ice for 30 mins. Stop stimulation after 30 min with 70 uL of prewarmed 1× fix/lysis buffer and use Feliex mate to resuspend (15 times, change tips for each plate) and incubate at 37C for 10 min.
Centrifuge at 2000 rpm for 5 min aspirate with HCS plate washer, mix on shaker for 30 sec and then wash with 70 uL in dPBS and pelleted 2× s (2000 rpm for 5 min) and 50 ul wash in FACS buffer pelleted 1×s(2000 rpm for 5 min). Mix on shaker for 30 sec. For Intracellular markers staining (MX-1): Add 50 ul of BD Perm buffer III and mix on shaker for 30 sec. Incubate on ice for 30 min (in the dark). Wash with 50 uL of FACS buffer 2× (spin @2300 rpm×5 min after perm) followed by mixing on shaker for 30 sec. Resuspended in 20 ul of FACS buffer containing MX1 antibody ( )(4812)-Alexa 647: Novus Biologicals #NBP2-43704AF647) 20 ul FACS bf+0.8 ul hlgG+0.04 ul MX-1. Spin 1000 rpm for 1 min, mix on shaker for 30se and the samples were incubated at RT in the dark for 45 min followed by washing 2× FACS buffer (spin @2300 rpm×5 min after perm). Resuspend 20 ul (35 uL total per well) of FACS buffer and cover with foil and place in 4° C. to read the following day. Plates were read on iQuePlus. The results were loaded into toolset and IC50 curves are generated in curve master. The y-axis 100% is set to 1 uM of resiquimod.

Structure (SMILES)	EC50 (human TLR7) [µM]	EC50 (CD69) [µM]
CCCCNc1nc(N)nc2cnn(Cc3ccc(C(=O)N4C[C@H]5CN(C)C[C@H]5C4)cc3OC)c12 [Compound 111, 1-({4-[(3aR,6aS)-5-methyl-octahydropyrrolo[3,4-c]pyrrole-2-carbonyl]-2-methoxyphenyl}-methyl)-N7-butyl-1H-pyrazolo[4,3-d]pyrimidine-5,7-diamine]	0.0164	0.0111
CCCCNc1nc(N)nc2cnn(Cc3ccc(C(=O)N4C[C@H]5CNC[C@H]5C4)cc3OC(F)F)c12 [Compound 123, 1-({4-[(3aR,6aS)-octahydro-pyrrolo[3,4-c]pyrrole-2-carbonyl]-2-(difluoromethoxy)phenyl}methyl)-N7-butyl-1H-pyrazolo[4,3-d]pyrimidine-5,7-diamine]	2.24	0.482
CCCCNc1nc(N)nc2cnn(Cc3ccc(C(=O)N4C[C@H]5CN(C)C[C@H]5C4)cc3OC3CC3)c12 [Compound 118, 1-({4-[(3aR,6aS)-5-methyl-octa-hydropyrrolo[3,4-c]pyrrole-2-carbonyl]-2-cyclopropoxyphenyl}-methyl)-N7-butyl-1H-pyrazolo[4,3-d]pyrimidine-5,7-diamine]	0.339	0.0518
CCCCNc1nc(N)nc2c(C)nn(Cc3ccc(C(=O)N4C[C@H]5C[C@@H]4CN5C)cc3OC)c12 [Compound 114, N7-butyl-1-({2-methoxy-4-[(1R,4R)-5-methyl-2,5-diazabicyclo-[2.2.1]heptane-2-carbonyl]phenyl}-methyl)-3-methyl-1H-pyrazolo[4,3-d]pyrimidine-5,7-diamine]	0.12	0.0154
CCCCNc1nc(N)nc2cnn(Cc3ccc(CN4C[C@H]5CNC[C@H]5C4)cc3OC)c12 [Compound 136, 1-[(4-{[(3aR,6aS)-octahydro-pyrrolo[3,4-c]pyrrol-2-yl]methyl}-2-methoxyphenyl)methyl]-N7-butyl-1H-pyrazolo[4,3-d]pyrimidine-5,7-diamine]	0.0622	0.0013
COc1cc(CN2C[C@H]3C[C@@H]2CN3C)ccc1Cn1nc(C)c2nc(N)nc(NCc3cc(C)on3)c21 [Compound 128, 1-[(2-methoxy-4-{[(1R,4R)-5-methyl-2,5-diazabicyclo[2.2.1]-heptan-2-yl]methyl}phenyl)-methyl]-3-methyl-N7-[(5-methyl-1,2-oxazol-3-yl)methyl]-1H-pyra-zolo[4,3-d]pyrimidine-5,7-diamine]	0.0744	0.028
CCC[C@@H](CCO)Nc1nc(N)nc2cnn(Cc3cnc(CN4C[C@H]5CNC[C@H]5C4)cc3OC)c12 [Compound 133, (3S)-3-({1-[(6-{[(3aR,6aS)-octa-hydropyrrolo[3,4-c]pyrrol-2-yl]methyl}-4-methoxypyridin-3-yl)methyl]-5-amino-1H-pyrazolo[4,3-d]pyrimidin-7-yl}amino)hexan-1-ol]	0.0899	0.0028
CCCCNc1nc(N)nc2cnn(Cc3ccc(CN4C[C@H]5CNC[C@H]5C4)cc3OC)c12 [Compound 143, 1-[(4-{[(3aR/6aS)-octahydropyrrolo [3,4-c]pyrrol-2-yl]methyl}-2-methoxyphenyl)methyl]-N7-butyl-1H-pyrazolo[4,3-d]pyrimidine-5,7-diamine]	0.0622	0.00129

Second part, the compound after the results:

EC50 (human TLR7) [µM]	EC50 (CD69) [µM]	Structure (SMILES)
0.378	0.002	CCCCNc1nc(N)nc2cnn(Cc3ccc(C(=O)N4C[C@H]5C[C@@H]4CN5C)cc3OC)c12 [Compound 110, N7-butyl-1-({2-methoxy-4-[(1R,4R)-5-methyl-2,5-diazabicyclo-[2.2.1]heptane-2-carbonyl]-phenyl}methyl)-1H-pyrazolo[4,3-d]pyrimidine-5,7-diamine]
0.0221	0.0013	CCC[C@@H](CCO)Nc1nc(N)nc2cnn(Cc3ccc(CN4C[C@H]5C[C@@H]4CN5C)cc3OC)c12 [Compound 121, (3S)-3-({5-amino-1-[(2-methoxy-4-{[(1R,4R)-5-methyl-2,5-diaza-bicyclo[2.2.1]heptan-2-yl]methyl}-phenyl)methyl]-1H-pyrazolo[4,3-d]pyrimidin-7-yl}amino)hexan-1-ol]
0.106	0.0181	CCC[C@@H](CCO)Nc1nc(N)nc2cnn(Cc3ccc(C(=O)N4C[C@H]5C[C@@H]4CN5C)cc3OC)c12 [Compound 119, (3S)-3-{[5-amino-1-({2-methoxy-4-[(1R,4R)-5-methyl-2,5-diazabicyclo [2.2.1]heptane-2-carbonyl]phenyl}methyl)-1H-pyrazolo[4,3-d]pyrimidin-7-yl]amino}hexan-1-ol]
0.354	0.0224	CCC[C@@H](CCO)Nc1nc(N)nc2cnn(Cc3cnc(CN4C[C@@H]5C[C@H]4CN5)cc3OC)c12 [Compound 134, (3S)-3-({5-amino-1-[(6-{[(1S,4S)-2,5-diazabicyclo[2.2.1]heptan-2-yl]methyl}-4-methoxypyridin-3-yl)methyl]-1H-pyrazolo[4,3-d]pyrimidin-7-yl}amino)hexan-1-ol]
0.716	0.0316	CCC[C@@H](CCO)Nc1nc(N)nc2cnn(Cc3cnc(CN4C[C@H]5C[C@@H]4CN5CCO)cc3OC)c12 [Compound 140]
0.0659	0.0022	CCC[C@@H](CCO)Nc1nc(N)nc2cnn(Cc3cnc(CN4C[C@H]5CN(C)C[C@H]5C4)cc3OC)c12 [Compound 132, (3S)-3-({1-[(6-{[(3aR,6aS)-5-methyl-octahydropyrrolo[3,4-c]pyrrol-2-yl]methyl}-4-methoxypyridin-3-yl)methyl]-5-amino-1H-pyrazolo [4,3-d]pyrimidin-7-yl}amino)hexan-1-ol]
0.0196	0.0019	CCCCNc1nc(N)nc2cnn(Cc3ccc(CN4C[C@H]5CN(CCO)C[C@H]5C4)cc3OC)c12 [Compound 139, 2-[(3aR,6aS)-5-[(4-{[5-amino-7-(butylamino)-1H-pyrazolo[4,3-d]pyrimidin-1-yl]methyl}-3-methoxy-pheny)methyl]-octahydropyrrolo[3,4-c]pyrrol-2-yl]ethan-1-ol]
